Reference: patent publication US9718790B2, “Triazine derivative and pharmaceutical composition having an analgesic activity comprising the same” (SHIONOGI & CO., LTD., priority 2010, dated 2017)
pIC50: −log10 of the molar value.

Target: human P2X3 receptor (Homo sapiens (Human), UniProt P56373)
Assay: Evaluation of human P2X3 receptor inhibitory activity (Fluo-3 calcium fluorescence, FDSS 3000, ATP stimulation);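 also: stimulus was 50 nM ATP with fluorescence followed for 3 min, and the response per well was peak post-ATP fluorescence divided by the reading at measurement start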
Type: cell-based
[1] = C6BU-1 cells stably expressing human P2X3 receptor
[2] = human P2X3 receptor, Test Example 1
[3] = C6BU-1 cells stably expressing human P2X3 receptor, Fluo-3 fluorescence, FDSS 3000

Sequence of human P2X3 receptor (P56373 whole entry): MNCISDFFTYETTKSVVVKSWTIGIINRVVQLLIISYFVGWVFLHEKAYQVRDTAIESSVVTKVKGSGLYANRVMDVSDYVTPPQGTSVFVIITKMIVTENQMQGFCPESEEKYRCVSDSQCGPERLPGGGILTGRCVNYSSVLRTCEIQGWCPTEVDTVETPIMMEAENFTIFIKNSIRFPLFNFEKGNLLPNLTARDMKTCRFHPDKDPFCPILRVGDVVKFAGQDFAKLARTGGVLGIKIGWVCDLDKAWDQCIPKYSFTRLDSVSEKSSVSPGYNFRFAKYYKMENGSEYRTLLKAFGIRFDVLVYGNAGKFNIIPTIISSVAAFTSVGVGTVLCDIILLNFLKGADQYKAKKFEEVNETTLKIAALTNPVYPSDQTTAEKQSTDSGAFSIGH

CCCOc1ccc(/N=c2\[nH]c(=O)n(C[C@H](C)C(=O)O)c(=O)n2Cc2ccc(Cl)cc2)cc1Cl [Compound I-0747]
pIC50 [1]: 7.92

COC(=O)c1cncc(Oc2ccc(/N=c3\[nH]c(=O)n(C)c(=O)n3Cc3ccc(C)cc3)cc2)n1 [Compound I-2468]
pIC50 [2]: 7.70

Cn1c(=O)[nH]/c(=N\c2ccc(Oc3ncc(C(N)=O)s3)cc2)n(Cc2ccc(Cl)cc2)c1=O [Compound I-2414]
pIC50 [2]: 8.52

CCc1oc2ccc(/N=c3\[nH]c(=O)n(CC4COC(C)(C)OC4)c(=O)n3Cc3ccc(Cl)cc3)cc2c1C [Compound I-1840]
pIC50 [3]: 8.15

COc1ccc2cc(/N=c3\[nH]c(=O)n([C@@H](C)[C@@H](C)C(=O)O)c(=O)n3Cc3ccc(Cl)cc3)ccc2c1 [Compound I-1773]
pIC50 [3]: 7.54

CCn1c(=O)[nH]/c(=N\c2ccc(Oc3ncccn3)cc2)n(Cc2ccc(Cl)cc2)c1=O [Compound I-2362]
pIC50 [2]: 8.00

CCCOc1ccc(/N=c2\[nH]c(=O)n(C(C)(C)CC(=O)O)c(=O)n2Cc2ccc(Cl)cc2)cc1 [Compound I-0829]
pIC50 [2]: 6.67

CCn1c(=O)[nH]/c(=N\c2ccc(Oc3ccc(C(=O)O)nc3)cc2)n(Cc2ccc(Cl)cc2)c1=O [Compound I-2115]
pIC50 [1]: 7.74

CCC(=O)Nc1cc(Oc2ccc(/N=c3\[nH]c(=O)n(CC)c(=O)n3Cc3ccc(Cl)cc3)cc2)ccn1 [Compound I-2217]
pIC50 [1]: 8.22

CCC[C@H](C)Oc1ccc(/N=c2\[nH]c(=O)n(C[C@H](C)C(=O)O)c(=O)n2Cc2ccc(C)cc2)cc1 [Compound I-1060]
pIC50 [3]: 7.54

Cc1ccc(Cn2c(=O)n(C[C@H](C)C(=O)O)c(=O)[nH]/c2=N\c2ccc(C3CC3)c(Cl)c2)cc1 [Compound I-1489]
pIC50 [2]: 6.60

CCOC(=O)CCn1c(=O)[nH]/c(=N\c2ccc(OC(C)C)c(COC)c2)n(Cc2ccc(C)cc2)c1=O [Compound I-1421]
pIC50 [1]: 6.05

Cc1nc2ccc(/N=c3\[nH]c(=O)n(CCCC(=O)O)c(=O)n3Cc3ccc(Cl)cc3)cc2s1 [Compound I-2143]
pIC50 [1]: 7.64

CCn1c(=O)[nH]/c(=N\c2ccc(Oc3cncc(CO)c3)cc2)n(Cc2ccc(Cl)cc2)c1=O [Compound I-2075]
pIC50 [1]: 7.68

CC[C@@H](Cn1c(=O)[nH]/c(=N\c2ccc(OC(C)C)c(C)c2)n(Cc2ccc(Cl)cc2)c1=O)C(=O)OC [Compound I-0887]
pIC50 [2]: 7.64

CC(C)Oc1ccc(/N=c2\[nH]c(=O)n(CC(=O)NC3CCOCC3)c(=O)n2Cc2ccc(Cl)cc2)cc1Cl [Compound I-0663]
pIC50 [1]: 8.30

CNC(=O)c1cc(Oc2ccc(/N=c3\[nH]c(=O)n(CCO)c(=O)n3Cc3ccc(Cl)cc3)cc2)ccn1 [Compound I-1735]
pIC50 [3]: 8.52

CCn1c(=O)[nH]/c(=N\c2ccc(Oc3ccnc(C(=O)OC)c3)cc2)n(CC2CCC(C)(C)CC2)c1=O [Compound I-2205]
pIC50 [1]: 8.05

CC(C)Oc1ccc(/N=c2\[nH]c(=O)n([C@@H](C)[C@@H](C)C(=O)O)c(=O)n2Cc2ccc(Cl)cc2)cc1Cl [Compound I-0923]
pIC50 [3]: 7.82

CNC(=O)[C@@H](C)Cn1c(=O)[nH]/c(=N\c2ccc(OC(C)C)c(C)c2)n(Cc2ccc(Cl)cc2)c1=O [Compound I-0721]
pIC50 [1]: 7.89

CCn1c(=O)[nH]/c(=N\c2ccc(Oc3cccc(C(=O)O)n3)cc2)n(Cc2ncc(Cl)cn2)c1=O [Compound I-2553]
pIC50 [2]: 6.67

O=C(Cn1c(=O)[nH]/c(=N\c2ccc(Oc3nccs3)cc2)n(Cc2ccc(Cl)cc2)c1=O)NCCO [Compound I-2646]
pIC50 [2]: 8.10

CCc1oc2ccc(/N=c3\[nH]c(=O)n(CC4(C(=O)O)CC4)c(=O)n3Cc3ccc(Cl)cc3)cc2c1C [Compound I-1551]
pIC50 [2]: 8.05

NC(=O)Cn1c(=O)[nH]/c(=N\c2ccc(Oc3ccon3)c(F)c2)n(Cc2ccc(Cl)cc2)c1=O [Compound I-2586]
pIC50 [2]: 8.15

COC(=O)[C@@H](C)n1c(=O)[nH]/c(=N\c2ccc(Oc3ccon3)cc2)n(Cc2ccc(Cl)cc2)c1=O [Compound I-2460]
pIC50 [2]: 7.46

COC(=O)[C@H](C)[C@H](C)n1c(=O)[nH]/c(=N\c2ccc(OC(C)C)c(C)c2)n(Cc2ccc(Cl)cc2)c1=O [Compound I-0809]
pIC50 [1]: 7.47

CCn1c(=O)[nH]/c(=N\c2ccc(Oc3ccc(NCC(N)=O)nc3)cc2)n(Cc2ccc(Cl)cc2)c1=O [Compound I-2625]
pIC50 [2]: 8.52

CCn1c(=O)[nH]/c(=N\c2ccc(Oc3ccc(C)c(C(=O)OC)c3)cc2)n(Cc2ccc(Cl)cc2)c1=O [Compound I-2015]
pIC50 [1]: 7.49

CCn1c(=O)[nH]/c(=N\c2ccc(Oc3cccc(C(N)=O)n3)cc2)n(C[C@H]2CC[C@H](C)CC2)c1=O [Compound I-2497]
pIC50 [2]: 9.00

CCc1oc2ccc(/N=c3\[nH]c(=O)n(CC(C)(C)C(=O)OC)c(=O)n3Cc3ccc(C)cc3)cc2c1C [Compound I-1575]
pIC50 [3]: 8.05

CCOC(=O)CCCn1c(=O)[nH]/c(=N\c2ccc(O)cc2)n(Cc2ccc(C)cc2)c1=O [Compound I-1239]
pIC50 [1]: 6.14

Cc1cc(/N=c2\[nH]c(=O)n(CC3(C(=O)O)CC3)c(=O)n2Cc2ccc(Cl)cc2)ccc1OC(C)C [Compound I-0698]
pIC50 [1]: 7.59

CNC(=O)Cn1c(=O)[nH]/c(=N\c2ccc(Oc3ccc(OC)nc3)cc2)n(Cc2ccc(Cl)cc2)c1=O [Compound I-1857]
pIC50 [3]: 8.15

O=c1[nH]/c(=N\c2ccc(Oc3nccs3)cc2)n(Cc2ccc(Cl)cc2)c(=O)n1C(CO)CO [Compound I-2541]
pIC50 [2]: 6.93

Cc1ccc(Cn2c(=O)n(CCC(=O)O)c(=O)[nH]/c2=N\c2ccc(OC3CCC3)cc2)cc1 [Compound I-1285]
pIC50 [1]: 7.29

O=c1[nH]/c(=N\c2ccc(Oc3ccon3)c(F)c2)n(Cc2ccc(Cl)cc2)c(=O)n1CC(CO)CO [Compound I-2439]
pIC50 [2]: 8.40

CCn1c(=O)[nH]/c(=N\c2ccc(Oc3ccsn3)cc2)n(C[C@H]2CC[C@H](C)CC2)c1=O [Compound I-2350]
pIC50 [2]: 8.70

Cc1ccc(Cn2c(=O)n(CCC(=O)O)c(=O)[nH]/c2=N\c2ccc(CC(C)C)c(F)c2)cc1 [Compound I-1299]
pIC50 [1]: 7.29

CCc1oc2ccc(/N=c3\[nH]c(=O)n(CC(CO)CO)c(=O)n3Cc3ccc(Cl)cc3)cc2c1C [Compound I-1842]
pIC50 [3]: 8.30

C[C@H](C(=O)O)[C@@H](C)n1c(=O)[nH]/c(=N\c2ccc(OC3CCC3)cc2)n(Cc2ccc(Cl)cc2)c1=O [Compound I-1456]
pIC50 [1]: 7.85

COC(=O)[C@@H](C)Cn1c(=O)[nH]/c(=N\c2ccc(OC(C)C)cc2)n(Cc2ccc(I)cc2)c1=O [Compound I-1080]
pIC50 [3]: 7.18

CC1(C)OC[C@H](Cn2c(=O)[nH]/c(=N\c3ccc(Oc4cncc(F)c4)cc3)n(Cc3ccc(Cl)cc3)c2=O)O1 [Compound I-2333]
pIC50 [2]: 8.52

COC(=O)[C@@H](C)Cn1c(=O)[nH]/c(=N\c2ccc(OCC(C)C)c(C)c2)n(Cc2ccc(C)cc2)c1=O [Compound I-0832]
pIC50 [2]: 6.99

COC(=O)[C@@H](C)Cn1c(=O)[nH]/c(=N\c2cccc(Br)c2)n(Cc2ccc(C)cc2)c1=O [Compound I-1077]
pIC50 [3]: 7.19

Cc1[nH]c2ccc(/N=c3\[nH]c(=O)n([C@@H](C)[C@@H](C)C(=O)O)c(=O)n3Cc3ccc(Cl)cc3)cc2c1C [Compound I-1771]
pIC50 [3]: 7.85

COC(=O)[C@@H](C)Cn1c(=O)[nH]/c(=N\c2ccc(OC3CCC3)cc2)n(Cc2ccc(C)cc2)c1=O [Compound I-1217]
pIC50 [1]: 8.30

Cc1ccc(Cn2c(Nc3ccc(OC(C)C)cc3)nc(=O)n(C(C)C)c2=O)cc1[N+](=O)[O-] [Compound I-0218]
pIC50 [3]: 6.30

COC(=O)c1ccc(Oc2ccc(/N=c3\[nH]c(=O)n(C)c(=O)n3Cc3ccc(Cl)cc3)cc2)cc1 [Compound I-2058]
pIC50 [1]: 8.15

CCOC(=O)CCn1c(=O)[nH]/c(=N\c2ccc(OC(C)C)c(OC)c2)n(Cc2ccc(Cl)cc2)c1=O [Compound I-1248]
pIC50 [1]: 8.22

C[C@H](CO)Cn1c(=O)[nH]/c(=N\c2ccc3oc(CO)cc3c2)n(Cc2ccc(Cl)cc2)c1=O [Compound I-1970]
pIC50 [1]: 7.09

CCn1c(=O)[nH]/c(=N\c2ccc(Oc3cncc(C(=O)OC)c3)cc2)n(Cc2ccc(C)cc2)c1=O [Compound I-2076]
pIC50 [1]: 8.15

CCn1c(=O)[nH]/c(=N\c2ccc(Oc3ncc(C(N)=O)s3)cc2)n(Cc2ccc(Cl)cc2)c1=O [Compound I-2609]
pIC50 [2]: 8.70

C=C(C)c1ccc(Cn2c(=O)n(C[C@H](C)C(=O)O)c(=O)[nH]/c2=N\c2ccc(OC(C)C)c(C)c2)cc1 [Compound I-1001]
pIC50 [3]: 6.53

Cc1ccc(Cn2c(=O)n(C)c(=O)[nH]/c2=N\c2ccc(Oc3ccnc(C(=O)O)c3)cc2)cc1 [Compound I-2100]
pIC50 [1]: 8.15

O=C(O)c1cncc(Oc2ccc(/N=c3\[nH]c(=O)n(C4CC4)c(=O)n3Cc3ccc(Cl)cc3)cc2)c1 [Compound I-2331]
pIC50 [2]: 8.15

COC(=O)[C@@H](C)Cn1c(=O)[nH]/c(=N\c2ccc(Oc3cccnc3)cc2)n(Cc2ccc(C)cc2)c1=O [Compound I-1126]
pIC50 [3]: 8.10

Cc1cc(Oc2ccc(/N=c3\[nH]c(=O)n(CCO)c(=O)n3Cc3ccc(Cl)cc3)cc2)no1 [Compound I-1756]
pIC50 [3]: 7.52

CCn1c(=O)[nH]/c(=N\c2ccc(Oc3nc(C(=O)O)co3)cc2)n(Cc2ccc(Cl)cc2)c1=O [Compound I-2190]
pIC50 [1]: 7.48

CNC(=O)c1cc(Oc2ccc(/N=c3\[nH]c(=O)n(C)c(=O)n3Cc3ccc(Cl)cc3)cc2F)ccn1 [Compound I-2433]
pIC50 [2]: 8.30

CCOC(=O)CCn1c(=O)[nH]/c(=N\c2ccc(Oc3ncccn3)cc2)n(Cc2ccc(Cl)cc2)c1=O [Compound I-2550]
pIC50 [2]: 8.40

COC(=O)[C@H](C)Cn1c(=O)[nH]/c(=N\c2ccc(N3CCCCC3)cc2)n(Cc2ccc(Cl)cc2)c1=O [Compound I-1484]
pIC50 [2]: 8.22

CCOC(=O)c1sc(Oc2ccc(/N=c3\[nH]c(=O)n(CC)c(=O)n3Cc3ccc(Cl)cc3)cc2)nc1C [Compound I-2147]
pIC50 [1]: 7.85

O=C(Cn1c(=O)[nH]/c(=N\c2ccc(Oc3ccc(O)nc3)cc2)n(Cc2ccc(Cl)cc2)c1=O)NCCO [Compound I-1902]
pIC50 [3]: 8.10

CNC(=O)Cn1c(=O)[nH]/c(=N\c2ccc(Oc3ccnnc3)cc2)n(Cc2ccc(Cl)cc2)c1=O [Compound I-2696]
pIC50 [2]: 8.10

CCc1oc2ccc(/N=c3\[nH]c(=O)n(CCC(=O)O)c(=O)n3Cc3ccc(C)cc3)cc2c1C [Compound I-1508]
pIC50 [2]: 7.74
